# According to US7033812B2, “β-secretase and modulation of β-secretase activity” (Scios Inc., priority 1999, dated 2006):
# System: neutral β-secretase activity
# Assay: β-secretase ELISA (βNTF) with partially purified APP/β-secretase mixture, pH 7.0
# Assay type: biochemical, human
"detectable levels of β-secretase activity (cardiolipin 0.01–100 μM in assay buffer, pH 7.0, 37° C. 16 hours, FIG. 4A)",Compound,β-secretase inhibition (pH 7)
–,NCCc1ccc(S(=O)(=O)F)cc1 [AEBSF],dose-dependent β-secretase inhibition
dose-dependent increase,cardiolipin,–
